Results on one compound are retold here after patent US11466020B2, “Compounds and compositions for inhibition and elimination of Zika infection and uses for same” (Cornell University, priority 2017, dated 2022).

Each structure is given as a SMILES string.

For one experiment, the system named is hNPCs. Briefly: hNPC viability, proliferation, apoptosis and identity. In kind it is cell-based, human. Conditions: 20 μM Merbromin, 72 h after ZIKV infection. How it is done: (A) Scheme of high content chemical screen. (B) Chemical structure of hit compounds. (C) Inhibitory curve and IC50 of HH or AQ on hNPCs (n=6). (D-H) Immunocytochemistry analysis (D), the quantification of the infection rate (E), the quantification of proliferation rate (F), the quantification of cell apoptosis rate (G) and the normalized cell viability (H) of hNPCs at 72 h after ZIKV (MR 766 strain) infection with or without drug treatment. Scale bars, 100 μm. The ZIKV infection rate is defined as the percentage of ZIKV E^+ cells. The proliferation rate is defined as the percentages of Ki67^+ cells. The cell apoptosis rate was defined as the percentage of cleaved-Caspase 3/CAS3^+ cells. The normalized cell viability was calculated by dividing the total cell number of each condition by the total cell number under mock infection conditions. (n=6). (I) qRT-PCR analysis to monitor the total ZIKV vRNA in the supernatant of hNPC cultures at 72 h after ZIKV infection with or without drug treatment. (J) Vero cell reinfection assay to monitor the ZIKV infectious particles in the supernatant of hNPC cultures with or without drug treatment. To perform the Vero cell reinfection assay, hNPCs at 72 h after ZIKV infection were washed three times and changed to drug free medium for an additional 24 h. Vero cells were infected with the supernatant collected from hNPCs for 2 h and changed to virus free medium for an additional 24 h. Vero cells were stained with antibody against ZIKV E and DAPI. Scale bars, 200 μm. (n=3). (K) Quantification of ZIKV infectious particles produced by ZIKV-infected hNPCs with or without compound treatment by the Vero cell reinfection assay. (L) Heatmap analysis of mock-infected hNPCs treated with DMSO (mock); mock infected hNPCs treated with 25 μM HH (HH), mock-infected hNPCs treated with 15 μM AQ (AQ), ZIKV (MR766 strain, MOI=0.125) infected hNPCs treated with DMSO (ZIKV+DMSO); ZIKV-infected hNPCs treated with 25 μM HH (ZIKV+HH), and ZIKV-infected hNPCs treated with 15 μM AQ (ZIKV+AQ). […] (M and N) Immunocytochemistry analysis (M) and quantification of the infection rate (N) of hNPCs at 72 h after ZIKV (PRVABC59 strain) infection with or without drug treatment (n=6). Scale bars, 100 μm. p values were calculated by one-way repeated measures ANOVA with a Bonferroni test for multiple comparisons. *p<0.05, **p<0.01 and ***p<0.001.
(A) Scheme to evaluate the elimination of ZIKV. At day 0, hNPCs were infected with ZIKV for 2 h. After removal of ZIKV infection medium, hNPCs were treated with drug candidates. At day 3, the culture medium was changed to fresh medium without compounds. The cells were maintained in drug-free culture until day 6 and used for immunohistochemistry and qRT-PCR. (B and C) Inhibitory curve and IC50 of HH calculated based on the infection rate (B) and normalized cell viability (C) (n=6). (D and E) Immunocytochemistry analysis (D) and the quantification of infection rate, cell apoptosis rate, and total cell number (E) of hNPCs on day 3 and day 6. Cells was fixed and stained with cleaved Caspase-3 (CAS3), ZIKV E and DAPI. Scale bars, 100 μm. (F) qRT-PCR analysis to monitor the total ZIKV vRNA in the supernatant of hNPC cultures on day 6. Scale bars, 200 μm. (n=3). (G) Vero cell reinfection assay to monitor the infective ZIKV vRNA in the supernatant of hNPC cultures at day 6 after ZIKV infection. Scale bars, 200 μm. (n=3). (H) Quantification of ZIKV infectious particles produced by ZIKV-infected hNPCs at day 6 by the Vero cell reinfection assay. (I) hNPCs with or without ZIKV infection treated with HH maintain hNPC marker expression and differentiation capacity. hNPCs with or without ZIKV MR766 infection were treated with 25 μM HH or DMSO for 3 days and then stained for SOX2, NESTIN and with DAPI. hNPCs with or without ZIKV infection and treated with HH or DMSO for 3 days were differentiated to cortical neurons. The cortical neurons were then fixed and stained for MAP2, TUJ1 and with DAPI. Scale bars, 100 μm. (n=3). […]

Another experiment concerns ZIKV MR766. Briefly: Inhibition of ZIKV infection of hNPCs (high content screen / inhibitory curve, ZIKV E staining). The class given is cell-based, Zika virus. The following applies: 20 μM Merbromin, 72 h after ZIKV infection. How it is done: A high content chemical screen identifies compounds that inhibit ZIKV infection of hNPCs. To identify drugs that inhibit ZIKV infection, we screened the Prestwick library that includes 1120 FDA-approved drug and drug candidates, selected for known bioavailability and safety in humans. To perform the screen, hNPCs seeded in 384-well plates were treated with each compound from the library or vehicle control (DMSO) for 1 hour, followed by addition of ZIKV MR766 at a MOI=0.125. After two hour of inoculation with ZIKV, the virus-containing medium was replaced by fresh virus-free medium and compounds were replenished for each well (See Methods). After an additional three days of culture, cells were fixed and stained with antibodies against the ZIKV envelop protein (ZIKV E) and a cell proliferation marker Ki67 (FIG. 1A). The percentages of ZIKV E^+ cells, Ki67^+ cells and total cell number were quantified by an automated imaging and analysis system. A two dimensional analysis was performed to choose the primary hit compounds (FIG. 5A). The X-axis represents the fold change of total cell number, which was calculated by dividing the total cell number of the chemical-treated well by the average total cell number of DMSO-treated wells. The Y-axis represents the fold change of the percentage of ZIKV infected cells, which was calculated by dividing the percentage of cells expressing ZIKV E in each chemical-treated well by the average of the percentage of cells expressing ZIKV E from DMSO-treated wells. […] Based on the fold change of the percentage of ZIKV infection, the signal-to-basal (S/B) ratio is 4.2 and the coefficient of variation (CV) is 6.9%. The Z factor is 0.59 indicating a robust screening system.
hNPCs were plated on 96-well plates at 8.5×10^4/cm^2. After overnight incubation, hNPCs were infected with ZIKV (MR766 strain, MOI=0.125) for 2 h, and changed to virus-free medium. The cells were maintained in NPC medium with daily medium change. Three days later, the supernatant and cells were collected and used for assays. hESC-derived forebrain organoids were infected with ZIKV MR766 (5×10^5 PFU/ml) for 24 h. After removal of virus containing medium, forebrain organoids were maintained in forebrain organoid medium for an additional 3 or 17 days and then used for assays.
High-content Screen. hNPCs were dissociated and plated on Matrigel-coated 384-well plates for the chemical screen. […] DMSO was used as a negative control. ZIKV MR766 was added at MOI=0.125. After 2 hour infection, the supernatant was replaced with fresh medium and compounds from the same chemical library were added to the same wells. After an additional 3 days incubation, cells were fixed, stained with antibodies against ZIKV envelop protein (ZIKV E) and proliferation marker Ki67, and analyzed with the ImageXpress^MICRO Automated High-Content Analysis System. […] X-axis represents the fold change of total cell number, which was calculated by dividing the total cell number of the chemical treated well by the average of total cell number of DMSO treated wells. Y-axis represents the fold change of the percentage of ZIKV infection, which was calculated by dividing the percentage of ZIKV infection of the chemical treated well by the average of the percentage of ZIKV infection of DMSO treated wells. The compounds in which the fold change of total cell number >1 and the fold change of the percentage of ZIKV infection <20% were further evaluated. […]

Regarding `O=C([O-])c1ccccc1-c1c2cc(Br)c(=O)cc-2oc2[c]([Hg+])c([O-])c(Br)cc12.[Na+].[Na+].[OH-]` [Merbromin], in the experiment with hNPCs, the “hNPC proliferation in ZIKV infected hNPCs” value is recorded as “significantly increased” and the “total cell loss in ZIKV infected hNPCs” value is reported as “rescued the total cell loss”. Besides, the “ZIKV infection of hNPCs” value in the experiment with ZIKV MR766 is “did not affect ZIKV infection”.
